Earlier results in PMC10368966, “Safety and efficacy of AK0529 in respiratory syncytial virus‐infected infant patients: A phase 2 proof‐of‐concept trial” (Influenza and Other Respiratory Viruses, 2023).

Experiments:
RSV = tested on: RSV; set-up: method as in PMID 32201897; details: cited from earlier work
SARS-CoV-2 [1] = tested on: SARS-CoV-2; set-up: method as in PMID 32423584; details: patients with severe COVID-19 ref 18; cited from earlier work
SARS-CoV-2 [2] = tested on: SARS-CoV-2; set-up: method as in PMID 32423584; details: cell cultures ref 18; cited from earlier work

Structure (SMILES) | length of hospital stay or time to clinical stability (RSV) | reduction in RSV viral load vs placebo (RSV) | effect on viral load (SARS-CoV-2 [1]) | time to clinical improvement (SARS-CoV-2 [1]) | inhibition of SARS-CoV-2 virus replication (SARS-CoV-2 [2])
CS(=O)(=O)CCCn1c(Cn2c(=O)n(CC(F)(F)F)c3ccncc32)cc2cc(Cl)ccc21 [JNJ‐8678] | no improvements | greater reduction in RSV viral load than with placebo | – | – | –
CCC(CC)COC(=O)[C@H](C)N[P@](=O)(OC[C@H]1O[C@@](C#N)(c2ccc3c(N)ncnn23)[C@H](O)[C@@H]1O)Oc1ccccc1 [Remdesivir] | – | – | no effect | numerically shorter | potent inhibitor
